Laboratory results as given in the NIST ThermoML archive (doi:10.1021/je900596d).
Numbers after ± are expanded uncertainties.

Details: for mass density: Vibrating tube method; for vapor or sublimation pressure: Closed cell (Static) method

FC(F)=C(F)C(F)(F)F [hexafluoropropene]
Details | mass density [kg/m3]
357.06 K, 1651 kPa, Fluid (supercritical or subcritical phases) | 106.72 ± 0.16
357.06 K, 1667.9 kPa, Fluid (supercritical or subcritical phases) | 108.13 ± 0.16
357.06 K, 1685.3 kPa, Fluid (supercritical or subcritical phases) | 109.66 ± 0.16
357.06 K, 1702 kPa, Fluid (supercritical or subcritical phases) | 111.18 ± 0.17
357.06 K, 1718.9 kPa, Fluid (supercritical or subcritical phases) | 112.75 ± 0.17
357.06 K, 1735.9 kPa, Fluid (supercritical or subcritical phases) | 114.23 ± 0.17
357.06 K, 1753 kPa, Fluid (supercritical or subcritical phases) | 115.8 ± 0.17
357.06 K, 1769.9 kPa, Fluid (supercritical or subcritical phases) | 117.29 ± 0.18
357.06 K, 1786.9 kPa, Fluid (supercritical or subcritical phases) | 118.92 ± 0.18
357.06 K, 1803 kPa, Fluid (supercritical or subcritical phases) | 120.39 ± 0.18
357.06 K, 1819.2 kPa, Fluid (supercritical or subcritical phases) | 121.89 ± 0.18
357.06 K, 1847.5 kPa, Fluid (supercritical or subcritical phases) | 124.55 ± 0.19
357.06 K, 1875.7 kPa, Fluid (supercritical or subcritical phases) | 127.36 ± 0.19
357.06 K, 1903.2 kPa, Fluid (supercritical or subcritical phases) | 130.04 ± 0.2
357.06 K, 1931.1 kPa, Fluid (supercritical or subcritical phases) | 132.82 ± 0.2
357.06 K, 1957.3 kPa, Fluid (supercritical or subcritical phases) | 135.5 ± 0.21
357.06 K, 1986 kPa, Fluid (supercritical or subcritical phases) | 138.47 ± 0.21
357.06 K, 2038.9 kPa, Fluid (supercritical or subcritical phases) | 144.14 ± 0.22
357.06 K, 2064.4 kPa, Fluid (supercritical or subcritical phases) | 146.83 ± 0.23
357.06 K, 2091.5 kPa, Fluid (supercritical or subcritical phases) | 149.92 ± 0.24
357.06 K, 2116.5 kPa, Fluid (supercritical or subcritical phases) | 152.72 ± 0.24
357.06 K, 2145.2 kPa, Fluid (supercritical or subcritical phases) | 156.08 ± 0.25
357.06 K, 2172.7 kPa, Fluid (supercritical or subcritical phases) | 159.34 ± 0.26
357.06 K, 2200.4 kPa, Fluid (supercritical or subcritical phases) | 162.66 ± 0.26
357.06 K, 2225 kPa, Fluid (supercritical or subcritical phases) | 165.74 ± 0.27
357.06 K, 2253.6 kPa, Fluid (supercritical or subcritical phases) | 169.3 ± 0.28
357.06 K, 2283.1 kPa, Fluid (supercritical or subcritical phases) | 173.12 ± 0.29
357.06 K, 2311 kPa, Fluid (supercritical or subcritical phases) | 176.88 ± 0.3
357.06 K, 2341.3 kPa, Fluid (supercritical or subcritical phases) | 180.98 ± 0.31
357.06 K, 2367.5 kPa, Fluid (supercritical or subcritical phases) | 184.68 ± 0.32
357.06 K, 2394.8 kPa, Fluid (supercritical or subcritical phases) | 188.59 ± 0.33
357.06 K, 2419.3 kPa, Fluid (supercritical or subcritical phases) | 192.26 ± 0.34
357.06 K, 2446.6 kPa, Fluid (supercritical or subcritical phases) | 196.5 ± 0.36
357.06 K, 2475.8 kPa, Fluid (supercritical or subcritical phases) | 201.14 ± 0.37
357.06 K, 2500.5 kPa, Fluid (supercritical or subcritical phases) | 205.14 ± 0.38
357.06 K, 2527.1 kPa, Fluid (supercritical or subcritical phases) | 209.62 ± 0.39
357.06 K, 2552.5 kPa, Fluid (supercritical or subcritical phases) | 214.03 ± 0.42
357.06 K, 2579.2 kPa, Fluid (supercritical or subcritical phases) | 218.88 ± 0.43
357.06 K, 2607.1 kPa, Fluid (supercritical or subcritical phases) | 224.15 ± 0.45
357.06 K, 2634.5 kPa, Fluid (supercritical or subcritical phases) | 229.51 ± 0.48
357.06 K, 2660.8 kPa, Fluid (supercritical or subcritical phases) | 234.97 ± 0.51
357.06 K, 2686.6 kPa, Fluid (supercritical or subcritical phases) | 240.49 ± 0.51
357.06 K, 2714.4 kPa, Fluid (supercritical or subcritical phases) | 246.83 ± 0.55
357.06 K, 2743.6 kPa, Fluid (supercritical or subcritical phases) | 253.76 ± 0.59
357.06 K, 2771 kPa, Fluid (supercritical or subcritical phases) | 260.83 ± 0.66
357.06 K, 2795.2 kPa, Fluid (supercritical or subcritical phases) | 267.52 ± 0.72
357.06 K, 2819.6 kPa, Fluid (supercritical or subcritical phases) | 274.69 ± 0.73
357.06 K, 2846 kPa, Fluid (supercritical or subcritical phases) | 283.07 ± 0.81
357.06 K, 2871.1 kPa, Fluid (supercritical or subcritical phases) | 291.79 ± 1
357.06 K, 2896.7 kPa, Fluid (supercritical or subcritical phases) | 302.07 ± 1.2
357.06 K, 2920.7 kPa, Fluid (supercritical or subcritical phases) | 312.54 ± 1.6
357.06 K, 2945.8 kPa, Fluid (supercritical or subcritical phases) | 324.88 ± 1.3
357.06 K, 2970.4 kPa, Fluid (supercritical or subcritical phases) | 338.77 ± 1.5
357.06 K, 2995.1 kPa, Fluid (supercritical or subcritical phases) | 355.46 ± 2
357.06 K, 3000.2 kPa, Fluid (supercritical or subcritical phases) | 359.35 ± 2.1
357.06 K, 3002.3 kPa, Fluid (supercritical or subcritical phases) | 361.25 ± 2.2
357.06 K, 3004.8 kPa, Fluid (supercritical or subcritical phases) | 363.25 ± 2.3
357.06 K, 3007 kPa, Fluid (supercritical or subcritical phases) | 365.19 ± 2.4
357.06 K, 3009.1 kPa, Fluid (supercritical or subcritical phases) | 367.24 ± 2.4
357.06 K, 3011.2 kPa, Fluid (supercritical or subcritical phases) | 369.24 ± 2.5
357.06 K, 3013.5 kPa, Fluid (supercritical or subcritical phases) | 371.38 ± 2.7
357.06 K, 3017.2 kPa, Fluid (supercritical or subcritical phases) | 375.58 ± 2.8
357.06 K, 3020.4 kPa, Fluid (supercritical or subcritical phases) | 379.51 ± 2.8
357.06 K, 3023.1 kPa, Fluid (supercritical or subcritical phases) | 383.27 ± 2.7
357.06 K, 3025.3 kPa, Fluid (supercritical or subcritical phases) | 386.99 ± 3
357.06 K, 3027.3 kPa, Fluid (supercritical or subcritical phases) | 391.04 ± 3.4
358 K, 3077.4 kPa, Liquid | 720.16 ± 5.3
358 K, 3079.5 kPa, Liquid | 727.89 ± 4.8
358 K, 3081.5 kPa, Liquid | 734.5 ± 4.5
358 K, 3083.8 kPa, Liquid | 736.72 ± 4.4
358 K, 3086 kPa, Liquid | 740.82 ± 4.3
358 K, 3088.2 kPa, Liquid | 744.57 ± 4.6
358 K, 3109.3 kPa, Liquid | 770.42 ± 3.6
358 K, 3111.5 kPa, Liquid | 772.98 ± 3.5
358 K, 3116.7 kPa, Liquid | 777.53 ± 3.4
358 K, 3119.3 kPa, Liquid | 780.08 ± 3.2
358 K, 3122.7 kPa, Liquid | 783.21 ± 3.2
358 K, 3129.1 kPa, Liquid | 787.86 ± 3
358 K, 3135.8 kPa, Liquid | 792.11 ± 2.7
358 K, 3142.4 kPa, Liquid | 796.64 ± 2.7
358 K, 3148.6 kPa, Liquid | 799.79 ± 2.5
358 K, 3156.4 kPa, Liquid | 804.75 ± 2.4
358 K, 3177.8 kPa, Liquid | 815.22 ± 2.1
358 K, 3185.3 kPa, Liquid | 818.23 ± 2
358 K, 3192.2 kPa, Liquid | 821.21 ± 2
358 K, 3200.1 kPa, Liquid | 824.15 ± 1.9
358 K, 3210.8 kPa, Liquid | 828.42 ± 1.9
358 K, 3221.1 kPa, Liquid | 831.96 ± 1.7
358 K, 3231.6 kPa, Liquid | 835.41 ± 1.7
358 K, 3241.7 kPa, Liquid | 838.72 ± 1.7
358 K, 3252.2 kPa, Liquid | 841.71 ± 1.6
358 K, 3262.8 kPa, Liquid | 844.89 ± 1.6
358 K, 3273.9 kPa, Liquid | 847.83 ± 1.6
358 K, 3295.3 kPa, Liquid | 853.38 ± 1.5
358 K, 3306 kPa, Liquid | 855.88 ± 1.5
358 K, 3329 kPa, Liquid | 860.99 ± 1.4
358 K, 3350.7 kPa, Liquid | 865.7 ± 1.4
358 K, 3372.9 kPa, Liquid | 869.87 ± 1.4
358 K, 3394.9 kPa, Liquid | 874.14 ± 1.3
358 K, 3416.1 kPa, Liquid | 877.89 ± 1.3
358 K, 3438.3 kPa, Liquid | 881.69 ± 1.3
358 K, 3460.7 kPa, Liquid | 885.32 ± 1.3
358 K, 3482.9 kPa, Liquid | 888.76 ± 1.2
358 K, 3504.8 kPa, Liquid | 892.14 ± 1.2
358 K, 3528.7 kPa, Liquid | 895.48 ± 1.2
358 K, 3550.1 kPa, Liquid | 898.37 ± 1.2
358 K, 3572 kPa, Liquid | 901.37 ± 1.2
358 K, 3593.3 kPa, Liquid | 903.96 ± 1.2
358 K, 3626 kPa, Liquid | 907.95 ± 1.2
358 K, 3637.5 kPa, Liquid | 909.42 ± 1.2
358 K, 3650.1 kPa, Liquid | 910.79 ± 1.2
358 K, 3672 kPa, Liquid | 913.13 ± 1.2
358 K, 3692.4 kPa, Liquid | 915.48 ± 1.2
358 K, 3737.5 kPa, Liquid | 920.3 ± 1.1
358 K, 3781.6 kPa, Liquid | 924.71 ± 1.1
358 K, 3805.3 kPa, Liquid | 927.04 ± 1.1
358 K, 3827.1 kPa, Liquid | 929.16 ± 1.1
358 K, 3849.3 kPa, Liquid | 931.26 ± 1.1
358 K, 3870.8 kPa, Liquid | 933.33 ± 1.1
358 K, 3892.8 kPa, Liquid | 935.23 ± 1.1
358 K, 3914.1 kPa, Liquid | 937.13 ± 1.1
358 K, 3959.7 kPa, Liquid | 940.96 ± 1.1
358 K, 3983.8 kPa, Liquid | 943.01 ± 1.1
358 K, 4012.7 kPa, Liquid | 945.18 ± 1.1
358 K, 4046.1 kPa, Liquid | 947.77 ± 1.1
358 K, 4078.7 kPa, Liquid | 950.34 ± 1.1
358 K, 4111.6 kPa, Liquid | 952.85 ± 1.1
358 K, 4143.9 kPa, Liquid | 955.16 ± 1.1
358 K, 4176.6 kPa, Liquid | 957.49 ± 1.1

Liquid
Details | vapor or sublimation pressure [kPa]
357.06 K | 3017.5 ± 5.3
357.27 K | 3031 ± 5
357.47 K | 3044.2 ± 5.4
357.56 K | 3050.4 ± 5.4
